Reference: PubChem BioAssay (NCI)
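Following 48 hours of exposure in 96-well plates, responses at five concentrations were used to interpolate endpoints linearly. TGI is the concentration that stops growth completely.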

How the values were obtained:
Assay in all cases: NCI-60 cell line screen, 48 h
MCF7 breast = test system: MCF7 breast
SK-OV-3 ovarian = test system: SK-OV-3 ovarian
NCI-H460 lung = test system: NCI-H460 lung
OVCAR-5 ovarian = test system: OVCAR-5 ovarian
MOLT-4 leukemia = test system: MOLT-4 leukemia
M14 melanoma = test system: M14 melanoma
T-47D breast = test system: T-47D breast
SW-620 colon = test system: SW-620 colon
NCI/ADR-RES ovarian = test system: NCI/ADR-RES ovarian
HOP-92 NSCLC = test system: HOP-92 NSCLC
A498 renal = test system: A498 renal
UACC-257 melanoma = test system: UACC-257 melanoma
MALME-3M melanoma = test system: MALME-3M melanoma
TK-10 renal = test system: TK-10 renal
RPMI-8226 leukemia = test system: RPMI-8226 leukemia
786-0 renal = test system: 786-0 renal
LOX IMVI melanoma = test system: LOX IMVI melanoma
SNB-19 CNS = test system: SNB-19 CNS
CCRF-CEM leukemia = test system: CCRF-CEM leukemia
KM12 colon = test system: KM12 colon
OVCAR-3 ovarian = test system: OVCAR-3 ovarian
RXF 393 renal = test system: RXF 393 renal
SK-MEL-2 melanoma = test system: SK-MEL-2 melanoma
SR leukemia = test system: SR leukemia
SNB-75 CNS = test system: SNB-75 CNS
HCT-15 colon = test system: HCT-15 colon
DU-145 prostate = test system: DU-145 prostate
OVCAR-8 ovarian = test system: OVCAR-8 ovarian
COLO 205 colon = test system: COLO 205 colon
HOP-62 NSCLC = test system: HOP-62 NSCLC
UACC-62 melanoma = test system: UACC-62 melanoma
MDA-MB-435 = test system: MDA-MB-435
HCT-116 colon = test system: HCT-116 colon
U251 CNS = test system: U251 CNS
NCI-H226 lung = test system: NCI-H226 lung
NCI-H522 lung = test system: NCI-H522 lung
SK-MEL-5 melanoma = test system: SK-MEL-5 melanoma
HS 578T breast = test system: HS 578T breast
OVCAR-4 ovarian = test system: OVCAR-4 ovarian
EKVX NSCLC = test system: EKVX NSCLC
A549 NSCLC = test system: A549 NSCLC
SF-268 CNS = test system: SF-268 CNS
BT-549 breast = test system: BT-549 breast
IGROV1 ovarian = test system: IGROV1 ovarian
K-562 leukemia = test system: K-562 leukemia
HT29 colon = test system: HT29 colon
SN12C renal = test system: SN12C renal
HL-60(TB) leukemia = test system: HL-60(TB) leukemia
SF-295 CNS = test system: SF-295 CNS
ACHN renal = test system: ACHN renal
PC-3 prostate = test system: PC-3 prostate
SK-MEL-28 melanoma = test system: SK-MEL-28 melanoma
SF-539 CNS = test system: SF-539 CNS
HCC-2998 colon = test system: HCC-2998 colon
CAKI-1 renal = test system: CAKI-1 renal
NCI-H23 lung = test system: NCI-H23 lung
MDA-N = test system: MDA-N
UO-31 renal = test system: UO-31 renal
MDA-MB-231 breast = test system: MDA-MB-231 breast

O=C(c1ccccc1)N(C(=O)c1ccccc1)c1nc(SCc2ccccc2)ns1 was tested, and the TGI (MCF7 breast) was greater than 100 µM, the TGI (SK-OV-3 ovarian) was greater than 100 µM and the TGI (NCI-H460 lung) was 56.2 µM. It also gave a TGI (OVCAR-5 ovarian) of 86.8 µM, a TGI (MOLT-4 leukemia) of 78 µM and a TGI (M14 melanoma) of 86.1 µM. For the same molecule, the TGI (T-47D breast) was greater than 100 µM, the TGI (SW-620 colon) was greater than 100 µM and the TGI (NCI/ADR-RES ovarian) was 78.7 µM. It also gave a TGI (HOP-92 NSCLC) of 73.6 µM, a TGI (A498 renal) of 73.9 µM and a TGI (UACC-257 melanoma) of 60.5 µM. The TGI (MALME-3M melanoma) was 74.8 µM, the TGI (TK-10 renal) was 84.5 µM and the TGI (RPMI-8226 leukemia) was 56.6 µM. It also gave a TGI (786-0 renal) of 70.5 µM, a TGI (LOX IMVI melanoma) of 60.4 µM and a TGI (SNB-19 CNS) greater than 100 µM. For the same molecule, the TGI (CCRF-CEM leukemia) was 65.3 µM, the TGI (KM12 colon) was greater than 100 µM and the TGI (OVCAR-3 ovarian) was 59.4 µM. For the same molecule, the TGI (RXF 393 renal) was greater than 100 µM, the TGI (SK-MEL-2 melanoma) was 49.5 µM and the TGI (SR leukemia) was 57.9 µM. It also gave a TGI (SNB-75 CNS) of 58.1 µM, a TGI (HCT-15 colon) of 65.3 µM and a TGI (DU-145 prostate) greater than 100 µM. For the same molecule, the TGI (OVCAR-8 ovarian) was greater than 100 µM, the TGI (COLO 205 colon) was 40.3 µM and the TGI (HOP-62 NSCLC) was 87.1 µM. The TGI (UACC-62 melanoma) was 42.9 µM, the TGI (MDA-MB-435) was 91.8 µM and the TGI (HCT-116 colon) was 57.3 µM. It also gave a TGI (U251 CNS) of 37.8 µM, a TGI (NCI-H226 lung) of 78.7 µM and a TGI (NCI-H522 lung) of 61.5 µM. The TGI (SK-MEL-5 melanoma) was 30.6 µM, the TGI (HS 578T breast) was 86.3 µM and the TGI (OVCAR-4 ovarian) was greater than 100 µM. The TGI (EKVX NSCLC) was 68.7 µM, the TGI (A549 NSCLC) was greater than 100 µM and the TGI (SF-268 CNS) was greater than 100 µM. The TGI (BT-549 breast) was 70.5 µM, the TGI (IGROV1 ovarian) was greater than 100 µM and the TGI (K-562 leukemia) was greater than 100 µM. For the same molecule, the TGI (HT29 colon) was 84.8 µM, the TGI (SN12C renal) was 64.7 µM and the TGI (HL-60(TB) leukemia) was 52.6 µM. The TGI (SF-295 CNS) was 79.1 µM, the TGI (ACHN renal) was greater than 100 µM and the TGI (PC-3 prostate) was 71 µM. The TGI (SK-MEL-28 melanoma) was 93.1 µM, the TGI (SF-539 CNS) was 44.1 µM and the TGI (HCC-2998 colon) was 49.9 µM. The TGI (CAKI-1 renal) was greater than 100 µM, the TGI (NCI-H23 lung) was 57.3 µM and the TGI (MDA-N) was 90.5 µM. For the same molecule, the TGI (UO-31 renal) was 23.7 µM.
In the case of O=C1C(Cl)C2(CC(/C=C/c3ccccc3)=NN2c2cccc(S(=O)(=O)O)c2)N1c1nc2ccccc2s1 (configuration not stated), the TGI (MCF7 breast) is reported as 36.6 µM, the TGI (NCI-H460 lung) is reported as 46.6 µM and the TGI (OVCAR-5 ovarian) is reported as 35.5 µM. The TGI (MOLT-4 leukemia) was 42.2 µM, the TGI (M14 melanoma) was 36 µM and the TGI (T-47D breast) was 27.9 µM. It also gave a TGI (SW-620 colon) of 93.6 µM, a TGI (NCI/ADR-RES ovarian) greater than 100 µM and a TGI (HOP-92 NSCLC) of 25.4 µM. The TGI (A498 renal) was 38.8 µM, the TGI (MDA-MB-231 breast) was 29.4 µM and the TGI (UACC-257 melanoma) was 54.4 µM. The TGI (MALME-3M melanoma) was 33.3 µM, the TGI (TK-10 renal) was 30.9 µM and the TGI (RPMI-8226 leukemia) was 33.8 µM. For the same molecule, the TGI (786-0 renal) was 31 µM, the TGI (LOX IMVI melanoma) was 13 µM and the TGI (SNB-19 CNS) was greater than 100 µM. For the same molecule, the TGI (CCRF-CEM leukemia) was 32.4 µM, the TGI (KM12 colon) was 30.9 µM and the TGI (RXF 393 renal) was 42.3 µM. For the same molecule, the TGI (SK-MEL-2 melanoma) was 40.9 µM, the TGI (SR leukemia) was 30 µM and the TGI (SNB-75 CNS) was 30.3 µM. For the same molecule, the TGI (HCT-15 colon) was 38.8 µM, the TGI (OVCAR-8 ovarian) was 25 µM and the TGI (COLO 205 colon) was 37.8 µM. The TGI (UACC-62 melanoma) was 29.8 µM, the TGI (MDA-MB-435) was 36.1 µM and the TGI (HCT-116 colon) was 56.1 µM. It also gave a TGI (U251 CNS) of 32.1 µM, a TGI (NCI-H226 lung) of 56.2 µM and a TGI (NCI-H522 lung) of 20.1 µM. The TGI (SK-MEL-5 melanoma) was 30.2 µM, the TGI (HS 578T breast) was greater than 100 µM and the TGI (OVCAR-4 ovarian) was 31.9 µM. It also gave a TGI (EKVX NSCLC) of 41 µM, a TGI (A549 NSCLC) of 30.2 µM and a TGI (SF-268 CNS) of 43.4 µM. It also gave a TGI (BT-549 breast) of 28.5 µM, a TGI (IGROV1 ovarian) of 21.1 µM and a TGI (K-562 leukemia) of 54.3 µM. For the same molecule, the TGI (HT29 colon) was 37.2 µM, the TGI (SN12C renal) was 36.1 µM and the TGI (HL-60(TB) leukemia) was 33.8 µM. For the same molecule, the TGI (ACHN renal) was 30.9 µM, the TGI (PC-3 prostate) was 34.4 µM and the TGI (SK-MEL-28 melanoma) was greater than 100 µM. For the same molecule, the TGI (SF-539 CNS) was 35.3 µM, the TGI (HCC-2998 colon) was 27.8 µM and the TGI (CAKI-1 renal) was 22.6 µM. For the same molecule, the TGI (NCI-H23 lung) was 28.1 µM, the TGI (MDA-N) was 46 µM and the TGI (UO-31 renal) was 16.1 µM.
